Measurements taken from US20210388007A1, “COMPOUND AND PREPARATION METHOD AND APPLICATION THEREOF” (WUHAN UNIVERSITY, priority 2020, published 2021).

Key:
[1] = solubility in common solvents of the tri(di)fluoroethanolation reagents; type: physicochemical; conditions: for solubility acetonitrile: solvent acetonitrile; for solubility dichloromethane (DCM): solvent dichloromethane (DCM); for solubility ethyl acetate (EA): solvent ethyl acetate (EA); for solubility n-hexane: solvent n-hexane
Description: (§1) The storage stability, light stability and solubility in common solvents of the tri(di)fluoroethanolation reagents 1a, 2a, A2, A3 and A4 prepared in Embodiment 1, Embodiment 23, Embodiment 30, Embodiment 31 and Embodiment 32 of the present disclosure were tested, and the results are shown in Table 1 below.

[2] = light stability (continuous white light irradiation, degradation rate); type: physicochemical
Description: as §1

[3] = storage stability (sealed storage, degradation rate); type: physicochemical
Description: as §1

| solubility acetonitrile [1] | solubility dichloromethane (DCM) [1] | solubility ethyl acetate (EA) [1] | solubility n-hexane [1] | light stability, continuous white light irradiation at 25° C. for 2 days (degradation rate, mol %) [2] [% mol %] | storage stability, sealed storage at 5° C. for two weeks (degradation rate, mol %) [3] [% mol %] | storage stability, sealed storage at 30° C. for two weeks (degradation rate, mol %) [3] [% mol %] | storage stability, sealed storage at 5° C. for two weeks (degradation rate, mol %) ([3]; listed as A2) [% mol %] | storage stability, sealed storage at 30° C. for two weeks (degradation rate, mol %) ([3]; listed as A2) [% mol %] | melting point [°C] | Compound |
| --- | --- | --- | --- | --- | --- | --- | --- | --- | --- | --- |
| dissolved | dissolved | dissolved | dissolved | <1 | <1 | 5 | – | – | – | C[Si](C)(c1ccccc1)C(O)C(F)(F)F (racemic) [a1] |
| dissolved | dissolved | dissolved | dissolved | <1 | <1 | 4 | 2 | 14 | – | C[Si](C)(c1ccccc1)C(O)C(F)F (racemic) [a2] |
| – | – | – | – | – | – | – | – | – | 116 to 118 | CC1(CC(O)C(F)(F)F)C(=O)N(c2ccccc2)c2ccccc21 (stereo not shown) [Embodiment 21, 3-methyl-1-phenyl-3-(3,3,3-trifluoro-2-hydroxypropyl)indol-2-one] |
| dissolved | dissolved | dissolved | well | <1 | <1 | 3.2 | – | – | – | C[Si](c1ccccc1)(c1ccccc1)C(O)C(F)(F)F (racemic) [Embodiment A4] |

| Compound | solubility acetonitrile [1] | solubility dichloromethane (DCM) [1] | solubility ethyl acetate (EA) [1] | solubility n-hexane [1] | light stability, continuous white light irradiation at 25° C. for 2 days (degradation rate, mol %) [2] [% mol %] | storage stability, sealed storage at 5° C. for two weeks (degradation rate, mol %) [3] [% mol %] | storage stability, sealed storage at 30° C. for two weeks (degradation rate, mol %) [3] [% mol %] | storage stability, sealed storage at 5° C. for two weeks (degradation rate, mol %) ([3]; listed as A2) [% mol %] | storage stability, sealed storage at 30° C. for two weeks (degradation rate, mol %) ([3]; listed as A2) [% mol %] | melting point [°C] |
| --- | --- | --- | --- | --- | --- | --- | --- | --- | --- | --- |
| OC(C(F)(F)F)[Si](c1ccccc1)(c1ccccc1)c1ccccc1 (stereo not shown) [Embodiment A3] | dissolved | dissolved | dissolved | slightly | <1 | <1 | <1 | – | – | – |
